The values below are quoted from earlier work in article PMC12371493 (ACS Bio & Med Chem Au, 2025).

This series has as its system MC38-hPD-L1 tumor. The settings on record: dosed SubQ; ref not given.

Structures are written as SMILES.

Turning to `CO[C@H]1[C@H]2OP(=O)(O)OC[C@@]34C[C@@H]3[C@@H](n3cnc5c(N)ncnc53)[C@H](O)[C@@H]4O[P@](=O)(S)OC[C@H]1O[C@H]2n1cnc2c(=O)[nH]c(N)nc21` [ALG-031048], the “reduction of MC38-hPD-L1 tumor” value was “could reduce MC38-hPD-L1tumor, albeit modestly”.
